From US7932262B2 (Novartis AG, priority 2006, dated 2011) come the findings set out here.

A word on the IC50: it is the concentration that gives 50% inhibition.

The test system of one assay is PC-3 cells. The assay is described as follows: Cell Proliferation Assay (Cell Titer Glo), PC-3 cell line. The assay is classed as cell-based. On the procedure:
IV. Cell Proliferation Assay Protocol:
A2780, PC-3, or PC3MM cells were seeded at 1000 cells/well in 100 μL/well (10.000 cells/mL) growth media in 96-well plates. Cells were allowed to adhere to the bottom of plates for 3-5 hours in a 37° C. 5% CO2 incubator. Compounds were dissolved in DMSO and then transferred to the cell plates. The cells were incubated with the compounds for 3 days in a 37° C. 5% CO2 incubator. The growth medium containing the compounds was then removed from the cells and fresh medium was added, followed by 100 μL of Cell Titer Glo assay reagent (Promega). This mixture was shaken for 1 minute and then incubated without shaking for 10 minutes. Activity determinations for the compounds were made by detection on a Trilux Instrument.
V. Cell Proliferation Assay Protocol: PC-3 Cell Line
PC-3 cells were seeded at 1000 cells/well in 100 μL/well (10.000 cells/mL) along with growth media into black-walled, clear bottom 96-well plates. The cells were allowed to adhere to the bottom of the plate for 3-5 hours in a 37° C. 5% CO2 incubator.
Test compounds were diluted to 500× in DMSO. The DMSO solutions of six of the compounds were transferred to the cells in the 96 well round bottom plate, column 2, row B-F. A 1:3 serial dilution of each compound was carried out. The serial dilution comprised adding 20 μL of DMSO to the wells containing the compounds and doing a 1:3 dilution across the plate from columns 2-10. Column 11 contained only DMSO. The serial dilution was carried out using a BioMek 2000 protocol “CP Serial Dilution using 250 μL tips” or “Proliferation Compound” (if using 20 μL tips).
To a 96 deep well block, columns 2-11 rows B-F, was transferred 500 μL of growth medium. Using the FX protocol “HH_CellAssay—2 μL to 500 μL”, 2 μL of compound from each cell of the compound plate was transferred to the corresponding cell in the 96 deep well block containing 500 μL of growth medium. The instrument was programmed to dilute the compound in growth medium and then transfer 100 μL of that mixture to cell plates containing cells. The cell plates, to which test compounds had been added, were incubated for 3 days at 37° C. Following the incubation, the medium was removed and replaced with fresh medium. Cell Titer Glo (100 μL) was added to each well and the plate was shaken for 1 minute and then incubated without shaking for 10 minutes. The plates were then read using a Trilux instrument.
Background: In ATP-based viability assays light output follows the ATP content of the culture.

A further assay has as its target T1, PDK1 kinase (Homo sapiens, UniProt O15530).
T1 sequence (O15530 1-556): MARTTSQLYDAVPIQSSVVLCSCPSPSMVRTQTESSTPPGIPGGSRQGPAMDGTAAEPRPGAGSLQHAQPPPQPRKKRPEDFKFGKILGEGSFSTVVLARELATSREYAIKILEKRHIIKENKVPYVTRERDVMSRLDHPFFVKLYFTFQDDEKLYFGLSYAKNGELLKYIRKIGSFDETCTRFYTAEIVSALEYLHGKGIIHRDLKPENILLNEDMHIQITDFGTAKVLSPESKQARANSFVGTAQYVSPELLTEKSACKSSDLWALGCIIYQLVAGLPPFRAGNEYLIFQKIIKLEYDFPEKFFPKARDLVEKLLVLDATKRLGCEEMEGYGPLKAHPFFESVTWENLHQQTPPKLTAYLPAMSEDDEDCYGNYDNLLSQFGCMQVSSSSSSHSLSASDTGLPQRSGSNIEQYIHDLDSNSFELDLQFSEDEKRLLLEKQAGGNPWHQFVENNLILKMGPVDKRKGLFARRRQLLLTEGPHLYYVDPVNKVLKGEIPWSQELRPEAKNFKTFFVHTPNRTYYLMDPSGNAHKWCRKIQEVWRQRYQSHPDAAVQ
The assay is described as follows: PDK1 Kinase Alpha Screen Assay. The format is biochemical. Particulars: read-out: PDK1 IC50. The procedure: 1. PDK1 Kinase Alpha Screen Assay
Reagents/Concentrations: The PDK1-4 peptide substrate, biotin-[…]-NH2, was purchased from the Tufts University Core Facility. The final concentration of PDK1-4 peptide substrate was 50 nM The ATP substrate (Adenosine-5′-triphosphate) was purchased from Roche Diagnostics. The final concentration of ATP substrate was 10 uM. Phospho-(Ser/Thr) PKA substrate antibody was purchased from Cell Signaling Technology. The final concentration of antibody was 0.3 mg/ml. The Alpha Screen Protein A detection kit containing donor and acceptor beads was purchased from PerkinElmer Life Sciences. The final concentration of both donor and acceptor beads was 25 μg/ml. Alpha Screen was used for detection. The biotinylated-PDK1-4 peptide was phosphorylated by PDK1 kinase using the ATP substrate. The biotinylated-PDK1-4 peptide substrate was bound to the streptavidin coated donor bead. The antibody was bound to the protein A coated acceptor bead. The antibody bound to the phosphorylated form of the biotinylated PDK-1 peptide substrate, bringing the donor and acceptor beads into close proximity. Laser irradiation of the donor bead at 680 nm generated a flow of short-lived singlet oxygen molecules. When the donor and acceptor beads were in close proximity, the reactive oxygen generated by the irradiation of the donor beads initiated a luminescence/fluorescence cascade in the acceptor beads. This process led to a highly amplified signal with output in the 530-620 nm range. Assays were carried out in 50 mM Tris, pH=7.5, 10 mM MgCl2, 0.1% Bovine Serum Albumin, 0.01% Tween-20, 2 mM Dithiolthreitol, 2.5% Dimethyl Sulfoxide. Reactions were stopped by adding 50 mM Tris, pH=7.5, 90 mM EDTA, 0.1% Bovine Serum Albumin, 0.01% Tween-20.
Procedure: To 10 μl of PDK1-4 peptide, 0.5 μl of test compound in dimethyl sulfoxide is added. PDK1 kinase and ATP are mixed. 10 μl of the PDK1 kinase/ATP mix is added to start the reaction. The reaction is allowed to proceed for 3-18 hours. The reactions are stopped by adding 10 μl of the EDTA-containing stop buffer. Beads are mixed with antibody. 25 μl of the bead/antibody mix is added to the stopped reactions. Plates are incubated at room temperature overnight to allow for detection development before being read. The assay is run is a 384-well format. […]

[1] abbreviates: Homo sapiens, PC-3, 72 h, PC-3 cells, 3 days incubation, read-out: CP EC50 PC3.
Setting [2] is: Homo sapiens, PC-3, Cell Proliferation Assay, PC3, read-out: CPEC50 PC3.

Read-outs that look alike come from different tables or passages of the source.

“8-(6-(2-(pyrrolidin-1- yl)ethylamino)pyridin-3-yl)-N-(4- (trifluoromethoxy)phenyl)quinazoin- 2-amine [Compound 394]”: the EC50 in the assay with PC-3 cells (Cell Proliferation Assay, PC3, read-out: CPEC50 PC3) was less than 5 µM. Moreover, on PDK1 kinase (PDK1 Kinase Alpha Screen Assay), the IC50 was less than 5 µM.
Regarding `CCN1CCC(Oc2ccc3cnc(Nc4cc(OC)cc(OC)c4)nc3c2)CC1` [Compound 56, (3,5-Dimethoxy-phenyl)-[7-(1-ethyl-piperidin-4-yloxy)-quinazolin-2-yl]-amine], the EC50 with PC-3 cells (setting [1]) is less than 5 µM. Besides, the IC50 at PDK1 kinase is less than 5 µM.
With `CC(C)N1CCC(Oc2ccc3cnc(Nc4ccc(Cl)cc4)nc3c2)CC1` [Compound 57, (4-Chloro-phenyl)-[7-(1-isopropyl-piperidin-4-yloxy)-quinazolin-2-yl]-amine], in the assay with PC-3 cells (setting [1]), the EC50 is less than 5 µM. In addition, the half-maximal inhibitory concentration (IC50) at PDK1 kinase was less than 5 µM.
Regarding `CC(C)N1CCC(Oc2ccc3cnc(Nc4ccc(F)cc4)nc3c2)CC1` [Compound 60, (4-Fluoro-phenyl)-[7-(1-isopropyl-piperidin-4-yloxy)-quinazolin-2-yl]-amine], the EC50 with PC-3 cells (setting [1]) lay within 5 to 10 µM. On PDK1 kinase, the half-inhibitory concentration (IC50) was less than 5 µM.
For the compound `CC(C)N1CCC(Oc2ccc3cnc(Nc4ccc(N)c(Cl)c4)nc3c2)CC1` [Compound 62, 2-Chloro-N*4*-[7-(1-isopropyl-piperidin-4-yloxy)-quinazolin-2-yl] benzene-1,4-diamine], the EC50 in the assay with PC-3 cells (setting [1]) lay in the range of 5 to 10 µM. The IC50 on PDK1 kinase is less than 5 µM.
On the same counts, the results for `Nc1cc(C(F)(F)F)c(-c2ccc3cnc(Nc4ccc(S(N)(=O)=O)cc4)nc3c2OC2CCNCC2)cn1` [Compound 69, 4-[7-(6-Amino-4-trifluoromethyl-pyridin-3-yl)-8-(piperidin-4-yloxy)-quinazolin-2-ylamino]-benzenesulfonamide] are 5 to 10 µM and less than 5 µM.
For `CC(C)N1CCC(Oc2cccc3cnc(Nc4ccc(CC(N)=O)cc4)nc23)CC1` [Compound 74, 2-{4-[8-(1-Isopropyl-piperidin-4-yloxy)-quinazolin-2-ylamino]-phenyl}-acetamide] the same measures were less than 5 µM and less than 5 µM.
On the same counts, the results for `CC(C)N1CCC(Oc2cccc3cnc(Nc4ccc(NC(=O)N5CCCC5)cc4)nc23)CC1` [Compound 75, Pyrrolidine-1-carboxylic acid {4-[8-(1-isopropyl-piperidin-4-yloxy)-quinazolin-2-ylamino]-phenyl}-amide] are less than 5 µM and less than 5 µM.
For the compound `CC(C)N1CCC(Oc2cccc3cnc(Nc4cccc(CC(N)=O)c4)nc23)CC1` [Compound 76, 2-{3-[8-(1-Isopropyl-piperidin-4-yloxy)-quinazolin-2-ylamino]-phenyl}-acetamide], the EC50 in the assay with PC-3 cells (setting [1]) is less than 5 µM. The IC50 on PDK1 kinase was less than 5 µM.
As for `CNC(=O)Cc1cccc(NC(=O)Cc2cccc(Nc3ncc4cccc(OC5CCN(C(C)C)CC5)c4n3)c2)c1` [Compound 78, 2-{3-[8-(1-Isopropyl-piperidin-4-yloxy)-quinazolin-2-ylamino]-phenyl}-N-(3-methylcarbamoylmethyl-phenyl)-acetamide], the EC50 with PC-3 cells (setting [1]) is less than 5 µM. The IC50 at PDK1 kinase was less than 5 µM.
As for `CC(C)NC(=O)Cc1cccc(Nc2ncc3cccc(OC4CCN(C(C)C)CC4)c3n2)c1` [Compound 79, N-Isopropyl-2-{3-[8-(1-isopropyl-piperidin-4-yloxy)-quinazolin-2-ylamino]-phenyl}-acetamide], the EC50 with PC-3 cells (setting [1]) was less than 5 µM. In addition, the concentration for half-maximal inhibition (IC50) on PDK1 kinase is less than 5 µM.
`CC(C)N1CCC(Oc2cccc3cnc(Nc4cccc(N5CCOCC5)c4)nc23)CC1` [Compound 80, [8-(1-Isopropyl-piperidin-4-yloxy)-quinazolin-2-yl]-(3-morpholin-4-yl-phenyl)-amine]: the EC50 in the assay with PC-3 cells (setting [1]) fell in the range of 5 to 10 µM. Further, the IC50 on PDK1 kinase is less than 5 µM.
For `CNS(=O)(=O)Cc1ccc(Nc2ncc3cccc(OC4CCN(C(C)C)CC4)c3n2)cc1` [Compound 82, C-{4-[8-(1-Isopropyl-piperidin-4-yloxy)-quinazolin-2-ylamino]-phenyl}-N-methyl-methanesulfonamide] the same measures were less than 5 µM and less than 5 µM.
Turning to `CC(C)N1CCC(Oc2cccc3cnc(Nc4ccc(F)cc4)nc23)CC1` [Compound 83, (4-Fluoro-phenyl)-[8-(1-isopropyl-piperidin-4-yloxy)-quinazolin-2-yl]-amine], the EC50 in the assay on PC-3 cells (setting [1]) lay within 5 to 10 µM. The IC50 on PDK1 kinase is less than 5 µM.
For `CC(C)N1CCC(Oc2cccc3cnc(Nc4ccc(Cl)cc4)nc23)CC1` [Compound 84] the same measures were less than 5 µM and less than 5 µM.
For the compound `CC(C)N1CCC(Oc2cccc3cnc(Nc4ccc(C(F)(F)F)cc4)nc23)CC1` [Compound 85, [8-(1-Isopropyl-piperidin-4-yloxy)-quinazolin-2-yl]-(4-trifluoromethyl-phenyl)-amine], the EC50 in the assay with PC-3 cells (setting [1]) is less than 5 µM. Also, the 50% inhibitory concentration (IC50) at PDK1 kinase is less than 5 µM.
`CC(C)N1CCC(Oc2ccc3cnc(Nc4ccc(C(F)(F)F)cc4)nc3c2)CC1` [Compound 318, 7-(1-isopropylpiperidin-4-yloxy)-N-(4-(trifluoromethyl)phenyl)quinazolin-2-amine]: the EC50 with PC-3 cells (setting [2]) is less than 5 µM. Moreover, the IC50 on PDK1 kinase (PDK1 Kinase Alpha Screen Assay) was less than 5 µM.
Take `CC(C)N1CCC(Oc2ccc3cnc(Nc4ccc(OC(F)(F)F)cc4)nc3c2)CC1` [Compound 319, 7-(1-isopropylpiperidin-4-yloxy)-N-(4-(trifluoromethoxy)phenyl)quinazolin-2-amine]: the EC50 in the assay with PC-3 cells (setting [2]) is less than 5 µM. The concentration for half-maximal inhibition (IC50) on PDK1 kinase (PDK1 Kinase Alpha Screen Assay) is less than 5 µM.
Consider `CC(=O)Nc1ccc(Nc2ncc3ccc(OC4CCN(C(C)C)CC4)cc3n2)cc1Cl` [Compound 320, N-(2-chloro-4-(7-(1-isopropylpiperidin-4-yloxy)quinazolin-2-ylamino)phenyl)acetamide], for which the EC50 in the assay with PC-3 cells (setting [2]) was less than 5 µM. Further, the half-inhibitory concentration (IC50) at PDK1 kinase (PDK1 Kinase Alpha Screen Assay) was less than 5 µM.
As to `COc1cc(S(N)(=O)=O)c(OC)cc1Nc1ncc2ccc(OC3CCNCC3)cc2n1` [Compound 321, 2,5-dimethoxy-4-(7-(piperidin-4-yloxy)quinazolin-2-ylamino)benzenesulfonamide], the EC50 with PC-3 cells (setting [2]) fell in the range of 5 to 10 µM. Moreover, the half-maximal inhibitory concentration (IC50) on PDK1 kinase (PDK1 Kinase Alpha Screen Assay) was less than 5 µM.
